Drawing on BindingDB's records for doi:10.1021/acs.jmedchem.8b00629 (Ludwig-Maximilians-University Munich, 2018), this text covers IC50 for 4 molecules.

One assay is described as follows: Inhibition of mouse GAT3 expressed in HEK293 cells assessed as reduction in [3H]GABA uptake preincubated for 25 mins followed by [3H]GABA addition measured after 4 mins by liquid scintillation counting analysis.
As for `O=C(O)[C@@H]1CCCN(CCC#Cc2cccc(/N=N/c3ccccc3)c2)C1`, the IC50 was greater than 100 µM.
With `O=C(O)[C@@H]1CCCN(CCC#Cc2ccc(/N=N/c3ccccc3)cc2)C1`, the half-maximal inhibitory concentration (IC50) is greater than 100 µM.
On the same count and under the same terms, the value for `O=C(O)[C@@H]1CCCN(CCC#Cc2cccc(/N=N/c3cccc4ccccc34)c2)C1` was greater than 100 µM; that for `O=C(O)[C@@H]1CCCN(CCC#Cc2ccc(/N=N/c3cccc4ccccc34)cc2)C1` was greater than 100 µM.

A further assay in a line: Inhibition of mouse GAT2 expressed in HEK293 cells assessed as reduction in [3H]GABA uptake preincubated for 25 mins followed by [3H]GABA addition measured after 4 mins by liquid scintillation counting analysis.
As for `O=C(O)[C@@H]1CCCN(CCC#Cc2cccc(/N=N/c3ccccc3)c2)C1`, the IC50 was greater than 100 µM.
Still for that read-out and setting: the same measure for `O=C(O)[C@@H]1CCCN(CCC#Cc2ccc(/N=N/c3ccccc3)cc2)C1`: greater than 100 µM; for `O=C(O)[C@@H]1CCCN(CCC#Cc2cccc(/N=N/c3cccc4ccccc34)c2)C1`: greater than 100 µM.
With `O=C(O)[C@@H]1CCCN(CCC#Cc2ccc(/N=N/c3cccc4ccccc34)cc2)C1`, the IC50 was greater than 100 µM.

The term IC50 denotes the concentration needed to halve the response being measured.
